Source: ChEMBL document CHEMBL1201862, “PubChem BioAssay data set” (2004)
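Cells were grown in 96-well plates and exposed to each compound for 48 hours at five concentrations; endpoints were interpolated linearly between bracketing concentrations, or set to the highest concentration if not reached. At the GI50, growth is halved.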 Calls of active or inactive are those of the source. Cut-off read from the data, not from the text of the source: active = GI50 up to about 1.1 µM and inactive = higher.

How the values were obtained:
Assay in all cases: NCI anticancer screen, dose series, 48 h
SK-MEL-28 = test system: SK-MEL-28
ACHN = test system: ACHN
DU-145 = test system: DU-145
SNB-75 = test system: SNB-75
NCI-H522 = test system: NCI-H522
CAKI-1 = test system: CAKI-1
CCRF-CEM = test system: CCRF-CEM
IGROV-1 = test system: IGROV-1
SF-539 = test system: SF-539
K562 = test system: K562
M14 = test system: M14
HOP-62 = test system: HOP-62
OVCAR-5 = test system: OVCAR-5
NCI-H23 = test system: NCI-H23
786-0 = test system: 786-0
MDA-N = test system: MDA-N
Malme-3M = test system: Malme-3M
Hs-578T = test system: Hs-578T
SK-OV-3 = test system: SK-OV-3

Measured: GI50

CC[C@@H]1CC[C@@H]2[C@H](CC[C@]3(C)[C@@H](O[N+](=O)[O-])CC[C@@H]23)[C@H]1C(C)=O
inactive: SK-MEL-28 30.3 µM | ACHN 28.4 µM | DU-145 45.7 µM | SNB-75 27.6 µM | NCI-H522 28.8 µM | CAKI-1 50.7 µM | CCRF-CEM 32.4 µM | IGROV-1 34.7 µM | SF-539 38.3 µM | K562 34.8 µM | M14 30.8 µM | HOP-62 46.3 µM | OVCAR-5 64.3 µM | NCI-H23 28.1 µM | 786-0 50.7 µM | MDA-N 28.9 µM | Malme-3M 25.4 µM | Hs-578T 44.7 µM

CC1(C)OC1COc1c2occc2cc2ccc(=O)oc12 (stereo unspecified)
inactive: SK-MEL-28 > 100 µM | ACHN > 100 µM | DU-145 > 100 µM | SNB-75 > 100 µM | NCI-H522 > 100 µM | CAKI-1 > 100 µM | CCRF-CEM > 100 µM | IGROV-1 > 100 µM | SF-539 > 100 µM | K562 > 100 µM | M14 > 100 µM | HOP-62 > 100 µM | OVCAR-5 > 100 µM | NCI-H23 > 100 µM | 786-0 > 100 µM | MDA-N > 100 µM | Malme-3M > 100 µM | Hs-578T > 100 µM

O=C(CN1CCCC1=O)CS(=O)(=O)c1ccccc1
inactive: SK-MEL-28 > 100 µM | ACHN > 100 µM | DU-145 > 100 µM | SNB-75 > 100 µM | NCI-H522 > 100 µM | CCRF-CEM > 100 µM | IGROV-1 > 100 µM | SF-539 > 100 µM | K562 > 100 µM | M14 > 100 µM | HOP-62 > 100 µM | OVCAR-5 > 100 µM | NCI-H23 > 100 µM | 786-0 > 100 µM | MDA-N > 100 µM | Malme-3M > 100 µM | Hs-578T > 100 µM

COC(=O)c1cncc2c1CC1C3(C(=O)OC)C=NC(C4C(CO)=CCC43)C21C (stereo unspecified)
inactive: SK-MEL-28 > 100 µM | ACHN > 100 µM | DU-145 > 100 µM | SNB-75 83.4 µM | NCI-H522 > 100 µM | CAKI-1 > 100 µM | CCRF-CEM > 100 µM | IGROV-1 > 100 µM | SF-539 > 100 µM | M14 > 100 µM | HOP-62 > 100 µM | OVCAR-5 > 100 µM | NCI-H23 > 100 µM | 786-0 > 100 µM | MDA-N > 100 µM | Malme-3M > 100 µM | Hs-578T > 100 µM

NC(=O)c1cc(N(CCO)CCO)c([N+](=O)[O-])cc1[N+](=O)[O-]
inactive: SK-MEL-28 > 100 µM | ACHN > 100 µM | DU-145 > 100 µM | SK-OV-3 > 100 µM | NCI-H522 > 100 µM | CAKI-1 > 100 µM | CCRF-CEM > 100 µM | IGROV-1 > 100 µM | SF-539 > 100 µM | K562 > 100 µM | M14 > 100 µM | HOP-62 > 100 µM | OVCAR-5 > 100 µM | NCI-H23 > 100 µM | 786-0 > 100 µM | MDA-N > 100 µM | Malme-3M > 100 µM | Hs-578T > 100 µM

COc1cc(NS(C)(=O)=O)ccc1N1Cc2c[nH]c3ccc4nc(C)cc1c4c23
inactive: SK-MEL-28 35.5 µM | ACHN > 100 µM | DU-145 > 100 µM | SNB-75 19.7 µM | SK-OV-3 41.6 µM | NCI-H522 26.2 µM | CAKI-1 26.4 µM | CCRF-CEM 52.1 µM | IGROV-1 33.3 µM | K562 26.5 µM | M14 > 100 µM | HOP-62 25.9 µM | OVCAR-5 > 100 µM | NCI-H23 88.9 µM | 786-0 20.7 µM | MDA-N 19.6 µM | Hs-578T 40.6 µM

Cc1csc2[n+]1C(=O)/C(=C\c1ccc([N+](=O)[O-])cc1)S2
inactive: SK-MEL-28 36.9 µM | ACHN 25.4 µM | DU-145 39 µM | SNB-75 20.3 µM | SK-OV-3 31.5 µM | CAKI-1 25.2 µM | CCRF-CEM 43.1 µM | SF-539 36.1 µM | K562 26.8 µM | M14 34 µM | HOP-62 28.5 µM | OVCAR-5 47.2 µM | NCI-H23 18.7 µM | 786-0 24.2 µM | MDA-N 27.8 µM | Hs-578T 25.6 µM

NC(Cc1cc(I)c(Oc2ccc(O)c(I)c2)c(I)c1)C(=O)O (stereo unspecified) [RATHYRONINE]
inactive: SK-MEL-28 38.9 µM | ACHN > 100 µM | DU-145 > 100 µM | SNB-75 54.3 µM | SK-OV-3 > 100 µM | NCI-H522 36.1 µM | CAKI-1 > 100 µM | IGROV-1 73.1 µM | M14 > 100 µM | HOP-62 > 100 µM | OVCAR-5 > 100 µM | NCI-H23 > 100 µM | 786-0 > 100 µM | MDA-N > 100 µM | Malme-3M 36.8 µM | Hs-578T 37.9 µM

CC1CC(=O)NC2CC1C2(C)C (stereo unspecified)
inactive: SK-MEL-28 > 100 µM | ACHN > 100 µM | DU-145 > 100 µM | SNB-75 > 100 µM | NCI-H522 > 100 µM | CCRF-CEM > 100 µM | IGROV-1 > 100 µM | K562 > 100 µM | M14 > 100 µM | OVCAR-5 > 100 µM | NCI-H23 > 100 µM | 786-0 > 100 µM | MDA-N > 100 µM | Malme-3M > 100 µM | Hs-578T > 100 µM

COC(=O)c1cn(CCCCO)nn1
inactive: SK-MEL-28 > 100 µM | ACHN > 100 µM | DU-145 > 100 µM | SNB-75 > 100 µM | CAKI-1 > 100 µM | CCRF-CEM > 100 µM | IGROV-1 > 100 µM | SF-539 > 100 µM | HOP-62 > 100 µM | NCI-H23 > 100 µM | 786-0 > 100 µM | MDA-N > 100 µM | Malme-3M > 100 µM | Hs-578T > 100 µM

CCOC(=O)CC(=O)NC1CC2CCC1(C)C2(C)C (stereo unspecified)
inactive: SK-MEL-28 > 100 µM | ACHN > 100 µM | DU-145 > 100 µM | SNB-75 > 100 µM | SK-OV-3 > 100 µM | CAKI-1 > 100 µM | CCRF-CEM > 100 µM | IGROV-1 > 100 µM | SF-539 > 100 µM | K562 > 100 µM | M14 > 100 µM | HOP-62 > 100 µM | OVCAR-5 > 100 µM | NCI-H23 > 100 µM | 786-0 > 100 µM | MDA-N > 100 µM | Malme-3M > 100 µM | Hs-578T > 100 µM

Cc1cc(-c2ccc(C(=O)C(c3ccccc3)(c3ccccc3)c3ccccc3)[nH]2)on1
inactive: SK-MEL-28 17.6 µM | DU-145 14.2 µM | SNB-75 20.4 µM | SK-OV-3 32.1 µM | CAKI-1 33.1 µM | CCRF-CEM 15.5 µM | IGROV-1 16.9 µM | SF-539 29.7 µM | K562 32 µM | M14 22.8 µM | HOP-62 17.1 µM | OVCAR-5 23.8 µM | NCI-H23 15 µM | 786-0 18.4 µM | MDA-N 16.6 µM | Malme-3M 31.4 µM | Hs-578T 19.2 µM
